Experiments:
Tryptase = Tryptase (Homo sapiens, UniProt Q9BZJ3+Q15661+Q9NRR2); assay: Inhibitory concentration against human tryptase
[1] = Aqueous stability was evaluated as half life at 37 degree C at pH 9; type: physicochemical; settings: aqueous solution
[2] = Aqueous stability was evaluated as half life at 37 degree C at pH 7; type: physicochemical; settings: aqueous solution
[3] = Ratio of inhibitory activities against human tryptase to that of human plasmin
[4] = Ratio of inhibitory activities against human tryptase to that of human tissue plasminogen activator (tissue plasminogen activator)
[5] = Ratio of inhibitory activities against human tryptase to that of human thrombin
[6] = Ratio of inhibitory activities against human tryptase to that of human trypsin
[7] = Ratio of inhibitory activities against human tryptase to that of human urokinase plasminogen activator (microPa)

| IC50 (Tryptase) | half-life [1] | half-life [2] | Ratio [3] | Ratio [4] | Ratio [5] | Ratio [6] | Ratio [7] | Compound |
| --- | --- | --- | --- | --- | --- | --- | --- | --- |
| 6 nM | 23.9 h | > 48 h | 3620 | > 5500 | > 5500 | 2170 | > 5500 | CN(CCCCc1ccccc1)C(=O)N1CCN(C(=O)N2C(=O)[C@H](CC3CCCN(C(=N)N)C3)[C@H]2C(=O)O)CC1 (stereo partly specified) |
| 4 nM | 7.3 h | > 48 h | 364 | 9170 | > 9170 | 5 | 843 | CC(C)C(OC(=O)N1CCN(C(=O)N2C(=O)[C@H](CCCN=C(N)N)[C@H]2C(=O)O)CC1)C(C)C |
| < 1.7 nM |  |  | > 26 | > 16500 | > 16500 | > 8 | > 226 | N=C(N)NCCC[C@H]1C(=O)N(C(=O)N2CCN(C(=O)CCCCCc3ccccc3)CC2)[C@@H]1C(=O)O |
| 1.9 nM |  |  | 8420 | > 17400 | > 17400 | 1680 | 12100 | N=C(N)N1CCCC(C[C@H]2C(=O)N(C(=O)N3CCN(C(=O)CCCCCC4CCCCC4)CC3)[C@@H]2C(=O)O)C1 (stereo partly specified) |
|  |  | > 48 h | 430 | > 8250 | 2620 | 18 | 135 | CC(C)(C)NC(=O)N1CCN(C(=O)N2C(=O)[C@H](CCCN=C(N)N)[C@H]2C(=O)O)CC1 |
| < 1.7 nM | > 17.5 h | > 48 h | > 16300 | > 19400 | > 19400 | > 1940 | > 17500 | N=C(N)N1CCCC(C[C@H]2C(=O)N(C(=O)N3CCN(C(=O)CCCCCc4ccccc4)CC3)[C@@H]2C(=O)O)C1 (stereo partly specified) |
| < 1.7 nM | > 17.5 h | > 48 h | > 12900 | > 19400 | > 19400 | > 3390 | > 11800 | N=C(N)N1CCC[C@H](C[C@H]2C(=O)N(C(=O)N3CCN(C(=O)CCCCCc4ccccc4)CC3)[C@@H]2C(=O)O)C1 |
| 4.6 nM |  |  | > 7150 | > 7150 | > 7150 | 739 | 5000 | N=C(N)N1CCCC(C[C@H]2C(=O)N(C(=O)N3CCN(C(=O)CCCCCc4ccccn4)CC3)[C@@H]2C(=O)O)C1 (stereo partly specified) |
| < 1.7 nM | > 17.5 h | > 48 h | > 19400 | > 19400 | > 19400 | > 3280 | > 19400 | N=C(N)N1CCC[C@@H](C[C@H]2C(=O)N(C(=O)N3CCN(C(=O)CCCCCc4ccccc4)CC3)[C@@H]2C(=O)O)C1 |

| Compound | IC50 (Tryptase) | half-life [1] | half-life [2] | Ratio [3] | Ratio [4] | Ratio [5] | Ratio [6] | Ratio [7] |
| --- | --- | --- | --- | --- | --- | --- | --- | --- |
| CC(C)C(OC(=O)N1CCN(C(=O)N2C(=O)[C@H](CC3CCCN(C(=N)N)C3)[C@H]2C(=O)O)CC1)C(C)C (single isomer, unassigned) [listing 1 of 2 here] |  |  |  | > 162 | > 162 | > 162 | > 162 | > 162 |
| CC(C)C(OC(=O)N1CCN(C(=O)N2C(=O)[C@H](CC3CN(C(=N)N)C3)[C@H]2C(=O)O)CC1)C(C)C | 12 nM | 14.4 h | > 48 h | 394 | 2840 | > 2840 | 7 | 862 |
| CC(C)C(OC(=O)N1CCN(C(=O)N2C(=O)[C@H](CC3CCCN(C(=N)N)C3)[C@H]2C(=O)O)CC1)C(C)C (stereo in doubt; form 2) [listing 1 of 2 here] | 63 nM |  |  |  |  |  |  |  |
| N=C(N)N1CCCC(C[C@H]2C(=O)N(C(=O)N3CCN(C(=O)OCCCOc4ccccc4)CC3)[C@@H]2C(=O)O)C1 (stereo partly specified) | < 1.7 nM |  |  | > 92500 | > 19400 | > 19400 | > 1680 | > 19400 |
| CC(C)C(OC(=O)N1CCN(C(=O)N2C(=O)[C@H](CC3CCCN(C(=N)N)C3)[C@H]2C(=O)O)CC1)C(C)C (stereo in doubt; form 1) [listing 1 of 2 here] | 71 nM | > 48 h | > 48 h |  |  |  |  |  |
| CC(C)C(OC(=O)N1CCN(C(=O)N2C(=O)[C@H](CC3CCCN(C(=N)N)C3)[C@H]2C(=O)O)CC1)C(C)C (stereo in doubt; form 2) [listing 2 of 2 here] |  |  |  | > 465 | > 465 | > 465 | 364 | > 465 |
| CC(C)C(OC(=O)N1CCN(C(=O)N2C(=O)[C@H](CC3CCCN(C(=N)N)C3)[C@H]2C(=O)O)CC1)C(C)C (stereo in doubt; form 1) [listing 2 of 2 here] |  |  |  | > 465 | > 465 | > 465 | 258 | > 465 |
| N=C(N)N1CCCC(C[C@H]2C(=O)N(C(=O)N3CCN(C(=O)NCCCCc4ccccc4)CC3)[C@@H]2C(=O)O)C1 (stereo partly specified) | < 1.7 nM | 12 h | > 48 h | > 16100 | > 19400 | > 19400 | > 1360 | > 8780 |
| CC(C)C(OC(=O)N1CCN(C(=O)N2C(=O)[C@H](CC3CCCN(C(=N)N)C3)[C@H]2C(=O)O)CC1)C(C)C (single isomer, unassigned) [listing 2 of 2 here] | 204 nM |  |  |  |  |  |  |  |

Reference: ChEMBL document CHEMBL1134958 (Bioorg Med Chem Lett, 2002)
